According to US20180354909A1, “SUBSTITUTED BENZIMIDAZOLIUM, PYRIDO-IMIDAZOLIUM, OR PYRAZINO-IMIDAZOLIUM COMPOUNDS AS CHEMOTHERAPEUTICS” (The Board of Regents of the University of Texas System, priority 2015, published 2018):

Tests used:
[1] = test system: DAOY (medulloblastoma) cells; experiment: CellTiter-Glo cell viability in DAOY cells; assay type: cell-based
Method: The activity of compound 12M11 was tested against a variety of cancer cell lines (see FIG. 2A), including those are routinely used in the literature such as HeLa, DAOY, MCF7, 435 and HCC38 cells. […] Just as for MEF cells, without wishing to be bound by any theory, it is believed that the resistance of DAOY cells to the OxyPhos inhibitor 12M11 can be attributed to their higher ATP levels per cell (FIG. 13B) combined with lower intrinsic OxyPhos activity as assessed by TMRE staining (FIG. 13C).

Mut6 [2] = experiment: Change in ATP levels in Mut6 cells; assay type: cell-based, mouse; conditions: Mut6, 2-6 hr
Method: Mut6 tumor cells or MEFs were plated into 96-well plates. One day later, Oligomyin (2 μM), Rotenone (200 nM), or 12M11 (1 μM) were added into each well and then ATP levels were measured by Cell-Titer Glo (Promega) after 2 hr, 4 hr, or 6 hr incubation. Each data is mean of six replicates with ± standard deviation.

[3] = test system: oxidative phosphorylation complexes I-V; experiment: Avidin agarose pull-down of Biotin-12M11 interacting proteins from Mut6 cells; assay type: binding, mouse; conditions: Mut6 cell lysates
Method: To understand the unique selectivity of 12M11 to affect the viability of Mut6 cells, the precise molecular target(s) of 12M11 were determined. A 12M11 biotinylated variant (see Cpd 1.11, FIG. 16C) was generated to attempt to directly pull down interacting proteins. […] Mut6 cells were treated with 12M11, Biot-12M11, or pre-incubated with 12M11 followed by addition of Biot-12M11 (see FIG. 17 for a general schematic protocol). As indicated in the silver stain of a denaturing gel (FIG. 18A) with the pull down reactions, several bands that appear in the Biot-12M11 tract (Lane 2) are substantially diluted or absent in Lane 3 where the cells were pre-incubated with excess 12M11. […] The results from Mass-Spec analysis were as follows: 1) Lysate from Mut6 cells incubated with 12M11 alone yielded no proteins; 2) Lysate from Mut6 cells incubated with Biot-12M11 yielded 8 proteins (Atp5a1, Acaca, Hspa9, Hsp60, Decr1, Sdha, Pcca, and Atp5o; FIG. 19B). Two of the proteins, Acac and Pcca, were discounted as known to nonspecifically bind Biotin (Tong, 2005; Diacovich, et al., 2004; Kalousek, et al., 1980). The remaining 6 proteins all localize to the mitochondrion and 3 of the pulled down proteins are components of the oxidative phosphorylation complexes. […]

Hepatocyte half-life = assay type: in vitro ADME; conditions: hepatocytes; in vitro; read-out: hepatocyte T1/2
Mut6 [4] = experiment: OCR and ECAR measurement (Seahorse) in Mut6; assay type: cell-based, mouse
Method: Oxygen consumption rate (OCR) and extracellular acidification rate (ECAR) were measured by Seahorse Bioscience instrument (XF24) with 80-90% confluent cells, according to the manufacturer's protocol. Briefly, cells were equilibrated for 1 hr at 37° C. incubator lacking CO2. Oxygen concentration and pH in media were measured during sequential treatment with 12M11, Oligomycin (1 μM), FCCP (1 μM), and Rotenone (200 nM). A minimum of three wells were utilized per condition to calculate OCR and ECAR.

[5] = test system: mitochondrial membrane potential; experiment: TMRE mitochondrial membrane potential staining in Mut6 cells; assay type: cell-based, mouse; conditions: within 30 min
Method: TMRE mitochondrial membrane potential assay kit was purchased from Abcam (113852) and the assay was performed according to the manufacturer's protocol. Briefly, cells were pre-incubated with 1 μM 12M11 (10 min or 18 hrs) or 100 nM FCCP (10 min) and incubated for additional 20 min with 200 nM TMRE before pictures were taken.

Phospho-S6 = experiment: p-S6 western blot in Mut6 cells; assay type: cell-based, mouse
Method: (§1) Mut6 tumor cells and MEFs were treated by DMSO or 1 μM 12M11 for the indicated times. Cell lysate was prepared by RIPA buffer with phosphatase inhibitor (Thermo) and protease inhibitor (Roche). Antibodies are purchased from Santa Cruz (ATF4), Cell Signaling (pS6, S6, AMPK, and pAMPK), and Millipore (Gapdh).

[6] = In vitro plasma half-life; assay type: in vitro ADME; conditions: mouse, plasma, murine plasma, read-out: Plasma T1/2 (converted)
Method: 12M11 (2 μM final concentration) was incubated with murine plasma and saline for 0-1440 minutes. Reactions were quenched with 200 μl (1:2) of methanol containing 0.1% formic acid and 200 ng/ml IS (IS final conc.=100 ng/mL). Samples were vortexed for 15 seconds, incubated at RT for 10 minutes and spun for 5 minutes at 13.2K rpm. Supernatant ([…]) was then transferred to an eppendorf tube and spun in a table top, chilled centrifuge for 5 minutes at 13.2K rpm. Supernatant (800 μL) was transferred to an HPLC vial (w/out insert). Analyzed by Qtrap 3200 mass spectrometer. These methods were used data obtained in the FIGS. 22C and 22F.

ATF4 = ATF4 western blot in Mut6 cells; assay type: cell-based, mouse
Method: as §1

half-life (Hepatocyte half-life): 4.28 h
half-life at 2 μM [6]: 4 min
SMILES: CCc1n(CC(=O)O[C@@H]2C[C@H](C)CC[C@H]2C(C)C)c2ccccc2[n+]1C.[Cl-] [Compound 12M11]
sensitivity of DAOY cells [1]: resistance
ATP levels (% change from basal) (Mut6 [2]): decrease significantly
association with OxyPhos complex proteins (pull-down) [3]: excludes
extracellular acidification rate (ECAR) (Mut6 [4]): dramatically increases
oxygen consumption rate (OCR) (Mut6 [4]): decrease
oxidative phosphorylation / mitochondrial membrane potential by TMRE staining [5]: impairs oxidative phosphorylation
Phospho-S6 protein level (Phospho-S6): down regulation
ATF4 protein level (ATF4): activation
